For series [1] the following is noted: cited from earlier work; for dissolution of complex vs. physical mixture: β-cyclodextrin complex vs. physical mixture.
Series [2] is described as follows: In vitro release of dipyridamole from coated tablets (USP apparatus II). In kind it is physicochemical. To be noted: for release of DP without SAE-CD: core DP, citric acid, fructose-lactose.
A short description of series [3]: pKa of dipyridamole. The series is classed as physicochemical. Conditions: basic drug.
Series [4] is described as follows: In vitro release of dipyridamole from coated tablets (USP apparatus II). In kind it is physicochemical. Here is the method: The sample volume was 20 μl and the UV detection wavelength was […] (Shimadzu 6A, Shimadzu, Japan). A mobile phase consisting of 70% methanol and 30% ammonium phosphate buffer (pH 5.0) was passed through the column at a flow rate of 1.5 ml/min. (SBE)7m -β-CD was detected by using a fluorimetric assay, 0.2 ml of a 1 mM solution of 2,6-toluidino-naphthalene-sulfonate to 0.8 ml of the sample. This solution was then excited at 325 nm and the emitted fluorescence detected at 455 nm using a Perkin 25 Elmer (Perkin-Elmer, CT) Fluorescence detector.
The ground physical mixture was then sieved through a 200 mesh (75 μm) screen. This process was repeated twice. This mixture was always stored in a desiccator when not used.
The dissolution die consists of a cylindrical stainless steel center-piece,a stainless steel platform, a stainless steel top cover, two Teflon sheets (top and bottom) and Teflon inserts. The cylindrical center-piece has a hole (radius=7.5 mm ) at the center in which the tablet is compressed. Both, the stainless steel top cover and top Teflon sheet have holes of same radius at the center. The center-piece was inverted and screwed onto the platform. […] The tablet core was compressed with a force of one ton for one minute using Carver press (Fred Carver Inc., NJ). The punch was carefully removed from the center-piece.
™ coatings were made by dissolving 5% (w/w) of […]™ R or S (Huls America, NJ), 5% of urea (SIGMA, MO) or polyethylene glycol (PEG 3350, SIGMA, MO) and 0.75% of triethyl Citrate (TEC, SIGMA, MO) in 89.25% ethanol. This was carried out until a clear solution was obtained. Cellulose acetate (CA-320S7 Eastman Chemical Co., TN) and hydroxypropyl methylcellulose phthalate (HPMCP, Eastman Chemical Co., TN) polymeric solutions were made by dissolving 5% of polymers and 1% of TEC in 94% of solvent containing equal amounts of methylene chloride and methanol. The ratio of CA to HPMCP was varied from 50:50 to 75:25 but the total amount of polymer was always maintained at 5%. The dissolution was carried out until clear solutions were obtained.
This coating solution was then air sprayed directly on the tablet surface under constant air flow (approx. 70° C.). The coated tablets were dried additionally for a period of 15 minutes under the same air flow. The tablets were additionally dried for a period of 12-16 hr. at room temperature. The thickness of the membrane was assumed to be the difference of thickness of the tablet after and before coating. The thickness measurements were carried out using a Screw-gauge micrometer.
The release studies for tablets coated with Eudragit L and CA: HPMCP were conducted by placing the dissolution die in a USP dissolution apparatus II (Vanderkamp 600, VanKel Industries Inc.) containing 450 ml of HCl (pH 1.5, 37° C. and 100 r.p.m.). […] 1.5 ml samples were collected periodically and equal amounts of dissolution medium was returned to the dissolution vessel. For the CA: HPMCP coated tablet, 100% release was determined by removing the membrane from the die and allowing the drug dissolution to be complete. The release experiments for tablets coated with Eudragit were conducted similarly in 450 ml of HCl for the first 2 hours, then placed in a phosphate buffer (pH 6.4) for additional 5 hr. and then placed in a phosphate buffer (pH 7.2). The release conditions and procedures were as described above.
0.5 ml of the sample was diluted by half in the mobile phase and the diluted samples were then analyzed using HPLC assay to determine drug concentrations as described in a later section.

The conditions of series [5]: in words; cited from earlier work.
Series [6] is described as follows: physchem. The method, then: (SBE)7 -β-CD (0-0.1 M) solutions were made in different buffer solutions at pH values ranging from 4.0 to 7.0 (citrate for 4 & 5; phosphate for 6 &7). […] The solutions were centrifuged for 10 min. at 2500 rpm. 20 μl of the supernatant was carefully sampled using a 100 μl gas-tight Hamilton Syringe (Hamilton, Nev.), diluted with mobile phase and analyzed by HPLC. The solubility data was then used to determine the binding constant using the method of Higuchi and Connors for AL-type phase behavior.

The conditions of series [7]: gels with methyl-β-cyclodextrin; cited from earlier work.
Series [8] can be described thus: Release of prednisolone and SBE7 β-CD from uncoated controlled release tablet cores. The series is classed as physicochemical. Conditions: for effect of HPMC viscosity 15,000 to 100,000 cps on release: 5% PD. The method, then:
The above ingredients are used to make a 300 mg tablet core having a controlled release profile. The ingredients were blended by hand and individual tablets were prepared on a carver press under a pressure of 1 ton for 7 seconds. The tablets were prepared using a 5/16" standard cup concave tooling. The determination of the release profile by dissolution was conducted according to USP method 2 at 37°, 100 rpm with paddles in a 900 ml water bath. The amounts of prednisolone (PD) released was determined by HPLC, and the amount of SBE7 -βCD released was determined by TNS as described herein.

For series [9] the following is noted: osmotic pump tablet with (SBE)7M -β-CD; cited from earlier work.

In general, pKa refers to the pH at which an ionisable group is half protonated. A word on the solubility: it is the concentration that dissolves in the medium under given conditions.

Each structure is given as a SMILES string. ≈ marks a conversion by molar mass, not a printed value.

For `CN1C(=O)C(O)N=C(c2ccccc2)c2cc(Cl)ccc21` (centres unmarked) [temazepam], the “dissolution of complex vs. physical mixture” value in series [1] is listed as “In only one of several examples did Martini et al. obtain a physical mixture formulation having a dissolution profile comparable to that of the preformed complex formulation”.

On to `Cc1cccc(N(C)C(=S)Oc2ccc3ccccc3c2)c1` [tolnaftate], for which the “dissolution of complex vs. physical mixture” value in series [1] is given as “improved dissolution over the physical mixture or free drug”.

Regarding `CC(=O)CC(c1ccccc1)c1c(O)c2ccccc2oc1=O` (centres unmarked) [warfarin], in [1], the “dissolution of complex vs. physical mixture” value was “significantly better, dissolution profile”.

Take `OCCN(CCO)c1nc(N2CCCCC2)c2nc(N(CCO)CCO)nc(N3CCCCC3)c2n1` [dipyridamole]: the “release profile, SBE7 β-CD vs. DP” value in [2] (EUDRAGIT-L film 150 μm, pH raised from 1.5 to 6.8 after two hours, FIG. 9) is recorded as “substantially the same release profile”. Further, in [2] (EUDRAGIT-L film, pH 1.5 to 6.8, FIG. 9), the release delay entry is “two hour delay”. In addition, the “release of DP without SAE-CD” value is “no release of DP was obtained” in series [2] (CA:HPMCP (50:50) 120 μm film); “incomplete release of DP was observed” in [2] (EUDRAGIT-L and urea (50:50) 120 μm film). Further, the pKa in series [3] was 6.28. Also, the type of release entry in series [4] (90 μm film, CA:HPMCP 1:1, FIG. 14) was “delayed release”; in series [4] (105 μm film, CA:HPMCP 6:4, FIG. 14), “combined delayed and controlled release”; in [4] (CA:HPMCP 1:1 film, FIG. 12), “combined delayed and controlled release”. The “effect of film thickness on release profile” value in series [4] (CA/HPMCP film 90 μm to 170 μm, FIG. 13) was “did not appear to substantially affect the release profile”; in series [4] (EUDRAGIT-L/urea film, physical mixture core, FIG. 10), “independent of film thickness but dependent upon solution pH”. Also, the “pH at which DP is released” value was ~7.2 in [4] (EUDRAGIT-S and urea film, FIG. 11); “about 6.8” in series [4] (comparison (EUDRAGIT-L and urea film)). Further, the bioavailability entry in series [5] was “low and variable bioavailability”. Moreover, the solubility at 24 h is 16000 µg/mL (≈ 31700 µM) in series [6] (citrate buffer with sbe7 β-cd, pH 4); 1990 µg/mL (≈ 3940 µM) in [6] (citrate buffer, pH 4, aqueous buffer); 504 µg/mL (≈ 999 µM) in series [6] (phosphate buffer with sbe7 β-cd, pH 7); 3.56 µg/mL (≈ 7.05 µM) in [6] (phosphate buffer, pH 7, aqueous buffer). In addition, in series [6] (water), the concentration in solution (solubility) came to 3.6 µg/mL (≈ 7.13 µM).

For `O=C1CN=C(c2ccccc2Cl)c2cc([N+](=O)[O-])ccc2N1` [clonazepam], in series [7], the “flux rate of clonazepam” value was “improves the flux rate”.

As to `CCC1(c2ccccc2)C(=O)NC(=O)NC1=O` [phenobarbitone], in series [1] (β-cyclodextrin), the “controlled dissolution, preformed complex vs. physical mixture” value is given as “preformed complex performs substantially better than the physical mixture”.

Consider `CN1C(C(=O)Nc2ccccn2)=C(O)c2ccccc2S1(=O)=O` [piroxicam], for which, in series [1], the “dissolution of complex vs. physical mixture” value is listed as “significantly better, dissolution profile”.

On to `C[C@]12C=CC(=O)C=C1CC[C@@H]1[C@@H]2[C@@H](O)C[C@@]2(C)[C@H]1CC[C@]2(O)C(=O)CO` [prednisolone], for which the “effect of HPMC viscosity 15,000 to 100,000 cps on release” value in [8] (35% SAE-CD, 50% HPMC, 10% lactose, FIG. 20) was “substantially independent of the viscosity of the HPMC”; in series [8] (70% SAE-CD, 25% HPMC, FIG. 19) it was “the rate of delivery of the PD and the overall amount of PD delivered increases”. In addition, the “effect of decreasing SAE-CD (increasing lactose) on delivery” value in series [8] (PD 5%, HPMC approximately 25%, FIG. 17) was “the rate of delivery of the PD and the overall amount of PD delivered decrease”. Besides, the “effect of increasing release rate modifier ratio on release rate” value in [8] (PD 5%, SAE-CD 35%, HPMC 25% to 50%, FIG. 18) is given as “the release rate of the drug is decreased”. Besides, the PD released result in [8] (control HPMC K100M, no cyclodextrin, eleven hours, FIG. 19) was “approximately 50 % by weight”; in series [8] (control HPMC K100M, no cyclodextrin, six hours, FIG. 19), “approximately 30 % by weight”; in [8] (no cyclodextrin, HPMC, after eleven hours, FIG. 16), “approximately 50 % by weight”; in series [8] (with SAE-CD, HPMC, approximately six hours, FIG. 16), “greater than 90%”; in [8] (with SAE-CD, HPMC, eleven hours, FIG. 16) it was “substantially complete delivery of the drug”. Also, the drug released was 75-90% in series [8] (release rate modifier:drug approximately 5:1, 12 hours, FIG. 18); 65-75% in series [8] (release rate modifier:drug approximately 5:1, about six hours, FIG. 18); 55-60% in [8] (release rate modifier:drug approximately 10:1, 12 hours, FIG. 18); 40-50% in series [8] (release rate modifier:drug approximately 10:1, about six hours, FIG. 18). For the same molecule, the release profile result in [9] is on record as “sustained release profile is provided by the osmotic pump tablet so long as the semipermeable membrane is present”.

Consider `COc1ccc2c(c1)c(CC(=O)O)c(C)n2C(=O)c1ccc(Cl)cc1` [indomethacin], for which the “dissolution of complex vs. physical mixture” value in series [1] is on record as “significantly better, dissolution profile”.

Turning to `CC(=O)Nc1ccc(O)cc1` [acetaminophen], the “dissolution of complex vs. physical mixture” value in series [1] is recorded as “significantly better, dissolution profile”.

Turning to `N=C(N)NCC1CCC(C(=O)Oc2ccccc2C(=O)OCc2ccccc2)CC1` (centres unmarked) [benexate], the “solubility of complex vs. physical mixture” value in series [1] (cyclodextrin complex vs. physical mixture or neat) was “significantly increased solubility”.

Source of the values: US6046177A, “Sulfoalkyl ether cyclodextrin based controlled release solid pharmaceutical formulations” (Cydex, Inc., priority 1999, dated 2000).
